The target in one series is T1, NPM-ALK (Homo sapiens, UniProt Q9UM73).
T1 construct: the other entry of the earlier key: NPM1 (P06748, Nucleophosmin)
The settings on record: Non-Patent Document 22; cited from earlier work.

Another series has as its system U-87MG cells. In words: anchorage independent growth on spheroid plate, U-87MG cells expressing full length ALK. The settings on record: 3 days. It is filed as cell-based, human. As to the method: (§1) The v1 expressing 3T3 cells (Example 6(1)) and one of the human glioma cells expressing the full length ALK polypeptide and not expressing EML4-ALK fusion polynucleotide endogenously, U-87 MG cells, were seeded to a 96 well spheroid plate (Sumilon Celltight Spheroid 96U, Sumitomo Bakelite Inc.) at 3000 cells per well in a medium containing 10% fetal bovine serum (DMEM for v1 expressing 3T3 cells and RPMI 1640 for U-87MG). […] At the same time, cells were counted before the addition of drugs (Day 0). Then, cells were cultured under 5% CO2, at 37° C. for 3 days, mixed with a reagent for measuring cell number (CellTiter-Glo™ Luminescent Cell Viability Assay; Promega Inc.) stirred for 20 minutes, and the measurements (day 3) were carried out using a luminometer (ML3000 microtiter plate luminometer; Dynatech Laboratories Inc.).

Series [1] concerns EML4-ALK fusion polynucleotide v1. In words: siRNA inhibition of mRNA expression of EML4-ALK fusion polynucleotide v1 in v1 expressing 3T3 cells, quantitative PCR. The settings on record: siRNA 20 nM, 72 hours. Format: cell-based, mouse. The protocol:
(§2) The v1 expressing 3T3 cells and U-87MG cells were seeded to 12 well plates (IWAKI; Asahi techno glass corp.) at 50,000 cells and 150,000 cells, respectively. Four hours later, using a transfection reagent (Lipofectamine RNAiMax; Invitrogen Inc.), siRNA-1 to siRNA-9 were prepared to a final concentration of 20 nM and transfected to cells according to the attached instruction. In addition, as a control no siRNA transfection samples were prepared. After 72 hours, the medium was removed, and total RNA was extracted using an RNA purification kit (RNeasy Mini Kit; QIAGEN Inc.) according to the attached instruction, and cDNA was prepared using a cDNA synthesizing kit (ThermoScript RT-PCR System; Invitrogen Inc.) according to the attached instruction.
(§3) The amount of expressed mRNA of the EML4-ALK fusion polynucleotide v1 in v1 expressing 3T3 cells and the amount of mRNA of the ALK gene in U-87MG cells were quantitated using a quantitative PCR reagent (Power SYBR Green PCR Master Mix; Applied Biosystems Inc.) The PCR reaction was carried out as follows: after 10 minutes incubation at 95° C., 45 cycles of 95° C. for 15 seconds and 60° C. for 60 seconds, and then one cycle of 95° C. for 15 seconds, 60° C. for 15 seconds and 95° C. for 15 seconds to complete the reaction. In addition, to calibrate the amount of expression, the amount of expression of the mouse cyclophilin B gene and the human GAPDH gene was similarly quantitated for v1 expressing 3T3 cells and U-87MG cells, respectively. Analyses were carried out using a sequence detector (ABI PRISM 7900 Sequence Detection System; Perkin-Elmer Applied Biosystems Inc.).
(§4) Oligo nucleotides consisting of the base sequences represented by SEQ ID NO: 44 and 48, SEQ ID NO: 50 and 56, SEQ ID NO: 44 and 48 and SEQ ID NO: 12 and 13 were used as the primer sets that specifically recognize the EML4-ALK fusion polynucleotide v1, the mouse cyclophilin B gene, the human ALK gene and the human GAPDH gene. Also, to obtain a standard curve to calculate the amount of respective mRNA, PCR was performed using human genomic DNA (Clontech) as a template for EML4-ALK fusion polynucleotide v1, human ALK and human GAPDH, and using mouse genomic DNA (Clontech) as a template for mouse cyclophilin B and the aforementioned primer sets under the same condition. Since a primer set corresponding to human ALK polynucleotide exon 29 was used to detect the EML4-ALK fusion polynucleotide v1, the standard curve can be obtained using human genomic DNA. The expression amount of the EML4-ALK fusion polynucleotide v1 and the human ALK gene in respective samples was calibrated with the expression amount of the mouse cyclophilin B gene and the human GAPDH gene to obtain the calibrated expression amount.

A further series concerns human ALK gene. As to the kind of experiment: siRNA inhibition of mRNA expression of ALK gene in U-87MG cells, quantitative PCR. To be noted: siRNA 20 nM, 72 hours. Format: cell-based. The protocol: as §2, §3, §4
Another series deals with v1 expressing 3T3 cells. In words: anchorage independent growth on spheroid plate, v1 expressing 3T3 cells. It is filed as cell-based, mouse. As to the method: as §1
Series [2] has as its system EML4-ALK fusion polypeptide v1. As to the kind of experiment: intracellular autophosphorylation of EML4-ALK fusion polypeptide v1 in v1 expressing BA/F3 cells. Format: cell-based, human. The settings on record: 6 hours. As to the method:
Compound A (1 μM, 5 μM and 10 μM) was added to the culture medium of v1 expressing BA/F3 cells (Example 5(1)) or not added, and cultured for 3 hours. In addition, BA/F3 cells expressing FLAG-EML4-ALKv1(K589M) were produced using pMX-iresCD8 vector in which EML4-ALK (K589M) was integrated so that FLAG can be added, and cultured. After culturing, cells were counted and the level of phosphorylation of tyrosine of EML4-ALK fusion polypeptide v1 was measured by immunoblotting using anti-phosphorylated ALK antibody. Further, for the same transfer membrane, immunoblotting analysis by anti-FLAG tag antibody (Eastman Kodak Inc.) was carried out, and total protein quantity of the FLAG attached EML4-ALK fusion polypeptide v1 was measured.
However, the culturing time after the addition of the compounds was 6 hours, and the total protein amount of the EML4-ALK fusion polypeptide v1 was measured using anti-ALK antibody. In addition, the amount of phosphorylation was calculated by quantitating as in Example 7(2). Also, for compound A, the amount of phosphorylation was calculated by quantitating in experiment under this condition. The rate of inhibition was calculated from the amount of phosphorylation when the compound was added, using the value when the compound was not added (the solvent of the compound, DMSO was added) as a control (0% inhibition).

For series [3], the system named is EML4-ALK fusion polypeptide v1. In words: in vitro phosphorylation of peptide substrate (TK substrate 1) by EML4-ALK fusion polypeptide v1, HTRF KinEASE-TK kit. It is filed as biochemical, human. The protocol:
(§5) The v1 expressing BA/F3 cells (Example 5(1)) were cultured in RPM1640 medium containing 10% of fetal bovine scrum to obtain 2.7×10^9 cells. After washing 3 times with PBS, cells were lysed in a lysis solution (50 mM Tris HCl (pH7.4), 150 mM NaCl, 1% Triton×100, 5 mM EDTA, 5 mM EGTA, 1 mM NaVO4, 1 mM DTT and protease inhibitor cocktail complete). The EML4-ALK fusion polypeptide v1 present in the supernatant obtained after a centrifugation was purified using ANTI-FLAG M2 Affinity Gel (SIGMA-ALDRICH Inc) according to the method described in the product information document. For washing and elution, the washing solution (50 mM Tris.HCl (pH7.4), 250 mM NaCl, 0.05% Brij35, 1 mM EDTA, 1 mM EGTA, 1 mM NaVO4, 1 mM DTT, complete) and the elution solution (50 mM Tris.HCl (pH7.4), 150 mM NaCl, 0.05% Brij35, 1 mM DTT, 0.5 mg/mL FLAG peptide) were used, respectively. Immunoblotting using anti-ALK antibody and anti FLAG M2 antibody (SIGMA-ALDRICH Inc.) and silver staining were carried out for the eluate to detect the EML4-ALK fusion polypeptide v1.
In addition, the phosphorylation activity toward a peptide substrate was investigated using a kinase activity detection kit (HTRF KinEASE-TK; Cisbio Inc.). Using TK substrate 1, which was included in the kit, as the substrate, and after adding no ATP or 100 μM ATP, the mixtures were reacted at room temperature for 1 hour, and the count of HTRF was detected as recommended by the Kits manufacturer. As the result it became clear that the count of HTRF (that is, phosphorylation of the peptide substrate) was increased by about 12 times by the addition of ATP compare to no addition of ATP. As shown above, the in vitro kinase activity of the EML4-ALK fusion polypeptide v1 can be detected using anti-phosphorylated ALK antibody and the kinase activity detection kit.
(§6) The inhibitory effect of compound A-D against the in vitro kinase activity of the EML4-ALK fusion polypeptide v1 was investigated using anti-phosphorylated ALK antibody and the kinase activity detection kit. Respective compounds were added to the reaction solution containing the EML4-ALK fusion polypeptide v1 at a final concentration of 10 μM or 10 nM, and then the reaction was carried out with or without the addition of ATP. The rest of the operations were carried out according to the method (2) described above. […] The inhibition (%) of the kinase activity of the EML4-ALK fusion polypeptide v1 by a compound was calculated by the following formula. […]

For series [4], the system named is EML4-ALK fusion polypeptide v1. As to the kind of experiment: in vitro kinase activity (autophosphorylation) of purified EML4-ALK fusion polypeptide v1, immunoblotting with anti-phosphorylated ALK antibody. Format: biochemical, human. As to the method:
as §5
The EML4-ALK fusion polypeptide v1 purified as described above was diluted in a reaction solution (15 mM Tris HCl (pH7.4), 0.25 mM MgCl2, 0.01% Tween-20, 2 mM DTT), and then ATP was not added or ATP 20 μM was added. The respective mixtures were reacted at room temperature for 1 hour. After the reaction, the auto phosphorylated EML4-ALK fusion polypeptide v1 and the EML4-ALK fusion polypeptide v1 were detected by immunoblotting using anti-phosphorylated ALK antibody, which recognizes specifically the product phosphorylated at the 1604th tyrosine residue of ALK, and anti-ALK antibody, and quantitated by an image analysis system (VersaDoc Imaging System; Bio-Rad Inc.). The amount of phosphorylation was calibrated by dividing the count of the autophosphorylated EML4-ALK fusion polypeptide v1 by the count of the EML4-ALK fusion polypeptide v1. As the result, the autophosphorylated EML4-ALK fusion polypeptide v1 band was detected at the location of about 130 kDa under the condition of ATP addition, and the amount of phosphorylation was increased by about 205 folds compared to no-ATP addition.
as §6
Background: A western blot detects proteins with antibodies after separation by electrophoresis.

In series [5] the target is T2, EML4-ALK fusion polypeptide v1 (Homo sapiens, UniProt Q9UM73, D1529E/I1461V/K1491R).
T2 construct: expressed in transfected cells; host or cells: mouse 3T3 fibroblasts transfected with EML4-ALKv1/pMXS (v1 expressing 3T3 cells); for A10, grown as a subcutaneous tumour in nude mice
In words: intracellular autophosphorylation of EML4-ALK fusion polypeptide v1 in v1 expressing 3T3 cells. It is filed as cell-based. To be noted: NIH3T3; final concentration 10 μM, 4 hours; read-out: Inhibition on autophosphorylation (3T3cells).

Where [6] appears, read: Mus musculus, NIH3T3, read-out: inhibition rate of anchorage independent growth, v1 expressing 3T3 cells.

The text below walks through data of patent US9932589B2, “EML4-ALK fusion gene” (Astellas Pharma Inc., priority 2006, dated 2018).

By inhibition is commonly meant the change of the read-out against control, counted positive when it falls.

T2 sequence (Q9UM73 with tags, fused parts or gaps I1461V/K1491R/D1529E): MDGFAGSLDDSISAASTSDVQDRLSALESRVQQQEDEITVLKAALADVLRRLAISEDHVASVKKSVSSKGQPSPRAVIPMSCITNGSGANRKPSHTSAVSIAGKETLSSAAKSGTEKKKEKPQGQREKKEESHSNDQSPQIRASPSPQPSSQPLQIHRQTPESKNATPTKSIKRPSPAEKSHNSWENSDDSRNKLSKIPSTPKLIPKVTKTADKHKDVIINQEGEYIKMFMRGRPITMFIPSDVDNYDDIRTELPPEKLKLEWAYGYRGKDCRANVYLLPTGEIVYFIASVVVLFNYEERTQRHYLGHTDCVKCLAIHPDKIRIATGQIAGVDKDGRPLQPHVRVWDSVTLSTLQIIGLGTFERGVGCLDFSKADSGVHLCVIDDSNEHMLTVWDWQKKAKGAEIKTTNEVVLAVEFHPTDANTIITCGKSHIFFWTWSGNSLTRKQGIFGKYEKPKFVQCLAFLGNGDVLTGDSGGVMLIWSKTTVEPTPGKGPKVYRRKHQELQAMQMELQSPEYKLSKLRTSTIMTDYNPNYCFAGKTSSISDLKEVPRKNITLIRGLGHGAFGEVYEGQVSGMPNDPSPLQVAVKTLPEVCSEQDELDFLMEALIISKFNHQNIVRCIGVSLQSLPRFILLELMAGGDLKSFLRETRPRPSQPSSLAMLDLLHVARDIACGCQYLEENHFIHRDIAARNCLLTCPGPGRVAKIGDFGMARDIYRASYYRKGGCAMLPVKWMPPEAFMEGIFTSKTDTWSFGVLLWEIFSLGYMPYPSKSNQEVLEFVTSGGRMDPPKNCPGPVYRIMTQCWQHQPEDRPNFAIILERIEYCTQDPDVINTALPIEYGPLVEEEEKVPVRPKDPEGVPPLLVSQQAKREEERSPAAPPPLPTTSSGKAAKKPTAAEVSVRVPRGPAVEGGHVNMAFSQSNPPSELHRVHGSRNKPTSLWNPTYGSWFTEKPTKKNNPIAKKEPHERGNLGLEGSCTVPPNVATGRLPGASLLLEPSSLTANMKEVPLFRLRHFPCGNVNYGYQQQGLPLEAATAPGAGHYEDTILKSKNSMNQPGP
T1 sequence (Q9UM73 with tags, fused parts or gaps): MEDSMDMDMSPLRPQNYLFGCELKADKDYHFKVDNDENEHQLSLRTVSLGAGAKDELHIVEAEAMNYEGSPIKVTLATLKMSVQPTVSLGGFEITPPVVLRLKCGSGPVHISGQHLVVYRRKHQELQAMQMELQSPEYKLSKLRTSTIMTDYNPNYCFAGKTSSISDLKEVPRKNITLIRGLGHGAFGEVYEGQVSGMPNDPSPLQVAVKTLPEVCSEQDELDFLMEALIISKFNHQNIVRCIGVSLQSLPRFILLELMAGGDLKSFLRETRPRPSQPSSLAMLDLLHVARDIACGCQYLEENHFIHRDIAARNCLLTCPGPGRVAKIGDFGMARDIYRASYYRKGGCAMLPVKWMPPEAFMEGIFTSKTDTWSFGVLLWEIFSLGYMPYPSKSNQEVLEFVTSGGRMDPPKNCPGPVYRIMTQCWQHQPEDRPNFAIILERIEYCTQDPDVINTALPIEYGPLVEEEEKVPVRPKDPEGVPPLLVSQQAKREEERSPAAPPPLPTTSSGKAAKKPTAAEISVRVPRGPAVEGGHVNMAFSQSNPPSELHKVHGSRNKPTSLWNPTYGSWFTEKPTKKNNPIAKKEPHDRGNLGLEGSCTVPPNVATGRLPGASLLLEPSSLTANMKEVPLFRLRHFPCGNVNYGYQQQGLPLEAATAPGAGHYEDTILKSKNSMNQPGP

Consider `COc1cc2ncnc(Nc3ccc(O)cc3)c2cc1OC` [WHI-P131, 4-(4′-Hydroxyphenyl)amino-6,7-dimethoxyquinazo line], for which the “activity of NPM-ALK” value at NPM-ALK was “inhibit the activity of NPM-ALK”.
Regarding “siRNA-9: negative control siRNA, SEQ ID NO: 127 and 128, base sequence not present in mammalian cells (chain 1 CGGCUGCAAUCGATTGATAGC; chain 2 TATCAAUCGAUUGCAGCCGAA; chemistry not given here)”, the “growth of U-87MG cells (in words)” value in the series with U-87MG cells (siRNA transfected) is listed as “did not inhibit the growth”. Moreover, in the series with U-87MG cells (siRNA transfected, spheroid plate), the “U-87MG cell growth inhibition rate” value is listed as −16%. Besides, in series [1], the “expression inhibitory effect on the EML4-ALK fusion polynucleotide (in words)” value was “did not demonstrate strong expression inhibitory effect”. Moreover, in series [1] (mRNA), the “Inhibition rate for EML4-ALK gene expression (v1 expressing 3T3 cells)” value turned out to be 29%. Further, the “expression inhibitory effect on the human ALK gene (in words)” value with human ALK gene is “did not demonstrate strong expression inhibitory effect”. For the same compound, the “Inhibition rate for ALK gene expression (U-87 MG cells)” value in the series on human ALK gene (mRNA) is given as −31%. Further, in the series on v1 expressing 3T3 cells (siRNA transfected, 3 days), the “anchorage independent growth of v1 expressing 3T3 cells (in words)” value was “did not inhibit the growth”. The “v1 expressing 3T3 cells growth inhibition rate” value in the series with v1 expressing 3T3 cells (siRNA transfected, spheroid plate, 3 days) is reported as −35%.
`COc1cc(N2CCC(N3CCN(C)CC3)CC2)ccc1Nc1ncc(Cl)c(Nc2ccccc2S(=O)(=O)C(C)C)n1` [compound C, 5-chloro-N^4-[2-(isopropylsulfonyl)phenyl]-N^2-{2-methoxy-4-[4-(4-methylpiperazin-1-yl)piperidin-1-yl]phenyl}pyrimidine-2,4-diamine]: in series [2] (final concentration 10 nM), the “Inhibition on autophosphorylation (BA/F3cells)” value is given as 84%. Besides, the inhibition at 0.01 µM in the series with U-87MG cells (Homo sapiens, U-87 MG, 72 h, final concentration 10 nM, read-out: inhibition rate of anchorage independent growth, U-87MG cell) is -2%; in the series on v1 expressing 3T3 cells (setting [6]), 131%. Besides, in [3] (final concentration 10 nM), the “Inhibition on peptide substrate” value is on record as 99%. In addition, in [4] (final concentration 10 nM), the Inhibition on autophosphorylation is recorded as 102%.
On to `O=C(COc1ccc(OC(F)(F)F)cc1)NCc1nc(C(=O)NCCc2cccc(Cl)c2)cs1` [compound B, N-[2-(3-chlorophenyl)ethyl]-2-[({[4-(trifluoromethoxy)phenoxy]acetyl}amino)methyl]-1,3-thiazole-4-carboxamide], for which the inhibition at 10 µM is 49% in [5]; 34% in the series with U-87MG cells (Homo sapiens, U-87 MG, 72 h, final concentration 10 μM, read-out: inhibition rate of anchorage independent growth, U-87MG cell); 91% in the series with v1 expressing 3T3 cells (setting [6]). The “Inhibition on autophosphorylation (BA/F3cells)” value in [2] (final concentration 10 μM) amounted to 77%. Further, the “Inhibition on peptide substrate” value in [3] (final concentration 10 μM) came out at 56%. Moreover, in series [4] (final concentration 10 μM), the Inhibition on autophosphorylation was 68%.
